Assays:
bedstraw = assay: Test B pre/postemergence bedstraw; format: in vivo, Galium aparine; details: Postemergence
Summary of the method: (§1)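 Response is a visual 0-to-10 score relative to untreated plants, where 0 means no effect and 10 means complete control, taken twelve to sixteen days after application. Treatments went onto soil at planting and onto foliage of 1- to 4-leaf plants, using a surfactant-containing non-phytotoxic solvent.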

morningglory = assay: Test B pre/postemergence morningglory; format: in vivo, Ipomoea hederacea; details: for Morningglory plant response rating: Postemergence; for Plant response rating, Morningglory: Preemergence
Summary of the method: as §1

wheat = assay: Test B pre/postemergence wheat; format: in vivo, Triticum aestivum; details: for Wheat plant response rating: Postemergence; for Plant response rating, Wheat: Preemergence
Summary of the method: as §1

cocklebur = assay: Test B pre/postemergence cocklebur; format: in vivo, Xanthium strumarium; details: for Cocklebur plant response rating: Postemergence; for Plant response rating, Cocklebur: Preemergence
Summary of the method: as §1

duck salad = assay: Test B flood test duck salad; format: in vivo, Heteranthera limosa
Summary of the method: (§2)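 Plants were grown to the 2-leaf stage before treatment with test chemical, then held in a greenhouse for twelve to sixteen days. Injury was visually rated against untreated controls on a 0–10 scale, where 0 is no effect and 10 is complete control.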

sugar beet = assay: Test B pre/postemergence sugar beet; format: in vivo, Beta vulgaris; details: for Sugarbeets plant response rating: Postemergence; for Plant response rating, Sugarbeets: Preemergence
Summary of the method: as §1

rice = assay: Test B flood test rice; format: in vivo, Oryza sativa
Summary of the method: as §2

soybean = assay: Test B pre/postemergence soybean; format: in vivo, Glycine max; details: for Soybean plant response rating: Postemergence; for Plant response rating, Soybean: Preemergence
Summary of the method: as §1

giant foxtail = assay: Test B pre/postemergence giant foxtail; format: in vivo, Setaria faberii; details: for Giant foxtail plant response rating: Postemergence; for Plant response rating, Giant foxtail: Preemergence
Summary of the method: as §1

purple nutsedge = assay: Test B pre/postemergence purple nutsedge; format: in vivo, Cyperus rotundus; details: for Nutsedge plant response rating: Postemergence; for Plant response rating, Nutsedge: Preemergence
Summary of the method: as §1

smallflower flatsedge = assay: Test B flood test smallflower flatsedge; format: in vivo, Cyperus difformis
Summary of the method: as §2

surinam grass = assay: Test B pre/postemergence surinam grass; format: in vivo, Brachiaria decumbens; details: for B. signalgrass plant response rating: Postemergence; for Plant response rating, B. signalgrass: Preemergence
Summary of the method: as §1

bamyardgrass = assay: Test B flood test barnyardgrass; format: in vivo, Echinochloa crus-galli
Summary of the method: as §2

wild oat = assay: Test B pre/postemergence wild oat; format: in vivo, Avena fatua; details: for Wild oats plant response rating: Postemergence; for Plant response rating, Wild oats: Preemergence
Summary of the method: as §1

crabgrass = assay: Test B pre/postemergence crabgrass; format: in vivo, Digitaria sanguinalis; details: for Crabgrass plant response rating: Postemergence; for Plant response rating, Crabgrass: Preemergence
Summary of the method: as §1

velvetleaf = assay: Test B pre/postemergence velvetleaf; format: in vivo, Abutilon theophrasti; details: for Velvetleaf plant response rating: Postemergence; for Plant response rating, Velvetleaf: Preemergence
Summary of the method: as §1

rape = assay: Test B pre/postemergence rape; format: in vivo, Brassica napus; details: for Rape plant response rating: Postemergence; for Plant response rating, Rape: Preemergence
Summary of the method: as §1

corn = assay: Test B pre/postemergence corn; format: in vivo, Zea mays; details: for Corn plant response rating: Postemergence; for Plant response rating, Corn: Preemergence
Summary of the method: as §1

blackgrass = assay: Test B pre/postemergence blackgrass; format: in vivo, Alopecurus myosuroides; details: for Blackgrass plant response rating: Postemergence; for Plant response rating, Blackgrass: Preemergence
Summary of the method: as §1

pigweed = assay: Test B pre/postemergence pigweed; format: in vivo, Amaranthus retroflexus; details: for Redroot pigweed plant response rating: Postemergence; for Plant response rating, Redroot pigweed: Preemergence
Summary of the method: as §1

[1] = Rate 125 g/ha, scale of 0 to 10 where 0 is no effect and 10 is complete control
[2] = Rate 250 g/ha, scale 0 to 10, 0 is no effect, 10 is complete control
[3] = Rate 500 g/ha, scale 0 to 10, 0 is no effect, 10 is complete control
[4] = Rate 1000 g/ha, scale 0 to 10 (0 no effect, 10 complete control)
[5] = Rate 500 g/ha, scale of 0 to 10 where 0 is no effect and 10 is complete control
[6] = Rate 250 g/ha, scale 0 to 10 (0 no effect, 10 complete control)
[7] = Pre-emergence, Rate 1000 g/ha, scale 0 to 10 (0 no effect, 10 complete control)
[8] = Rate 125 g/ha, under heading Pre-emergence, flood test species, visual evaluation after twelve to sixteen days
[9] = Rate 250 g/ha, Pre-emergence (flood test species), scale 0 to 10, 0 is no effect, 10 is complete control
[10] = Rate 500 g/ha, Pre-emergence section of Table B, 0 to 10 scale (0 no effect, 10 complete control)

COC(=O)C(CCO)n1c(=O)on(C(=O)N(c2ccc(F)cc2)C(C)C)c1=O (stereo not drawn) [Compound 680]
Bedstraw plant response rating (bedstraw; [1]): 0
Bedstraw plant response rating (bedstraw; [2]): 0
Bedstraw plant response rating (bedstraw; [3]): 0
Morningglory plant response rating (morningglory; [1]): 1
Morningglory plant response rating (morningglory; [4]): 7
Plant response rating, Morningglory (morningglory; [1]): 0
Plant response rating, Morningglory (morningglory; [5]): 0
Morningglory plant response rating (morningglory; [2]): 1
Morningglory plant response rating (morningglory; [3]): 1
Plant response rating, Morningglory (morningglory; [4]): 0
Wheat plant response rating (wheat; [1]): 0
Plant response rating, Wheat (wheat; [1]): 0
Plant response rating, Wheat (wheat; [5]): 0
Wheat plant response rating (wheat; [2]): 0
Wheat plant response rating (wheat; [3]): 0
Plant response rating, Wheat (wheat; [4]): 0
Cocklebur plant response rating (cocklebur; [1]): 0
Cocklebur plant response rating (cocklebur; [4]): 0
Plant response rating, Cocklebur (cocklebur; [1]): 0
Plant response rating, Cocklebur (cocklebur; [6]): 0
Plant response rating, Cocklebur (cocklebur; [5]): 0
Cocklebur plant response rating (cocklebur; [2]): 0
Cocklebur plant response rating (cocklebur; [3]): 0
Plant response rating, Cocklebur (cocklebur; [4]): 0
Ducksalad plant response rating (duck salad; [7]): 0
Ducksalad plant response rating (0 to 10 scale, 0 is no effect, 10 is complete control) (duck salad; [8]): 0
Ducksalad plant response rating (duck salad; [9]): 0
Ducksalad plant response rating (duck salad; [10]): 0
Sugarbeets plant response rating (sugar beet; [1]): 0
Plant response rating, Sugarbeets (sugar beet; [1]): 0
Plant response rating, Sugarbeets (sugar beet; [5]): 0
Sugarbeets plant response rating (sugar beet; [2]): 0
Sugarbeets plant response rating (sugar beet; [3]): 0
Plant response rating, Sugarbeets (sugar beet; [4]): 0
Rice plant response rating (rice; [7]): 0
Rice plant response rating (0 to 10 scale, 0 is no effect, 10 is complete control) (rice; [8]): 0
Rice plant response rating (rice; [9]): 0
Rice plant response rating (rice; [10]): 0
Soybean plant response rating (soybean; [1]): 0
Plant response rating, Soybean (soybean; [1]): 0
Plant response rating, Soybean (soybean; [5]): 0
Soybean plant response rating (soybean; [2]): 0
Soybean plant response rating (soybean; [3]): 3
Plant response rating, Soybean (soybean; [4]): 0
Giant foxtail plant response rating (giant foxtail; [1]): 0
Giant foxtail plant response rating (giant foxtail; [4]): 8
Plant response rating, Giant foxtail (giant foxtail; [1]): 0
Plant response rating, Giant foxtail (giant foxtail; [5]): 4
Giant foxtail plant response rating (giant foxtail; [2]): 0
Giant foxtail plant response rating (giant foxtail; [3]): 5
Plant response rating, Giant foxtail (giant foxtail; [4]): 7
Nutsedge plant response rating (purple nutsedge; [1]): 0
Plant response rating, Nutsedge (purple nutsedge; [1]): 0
Plant response rating, Nutsedge (purple nutsedge; [5]): 0
Nutsedge plant response rating (purple nutsedge; [2]): 0
Nutsedge plant response rating (purple nutsedge; [3]): 0
Plant response rating, Nutsedge (purple nutsedge; [4]): 0
S. Flatsedge plant response rating (smallflower flatsedge; [7]): 0
S. Flatsedge plant response rating (0 to 10 scale, 0 is no effect, 10 is complete control) (smallflower flatsedge; [8]): 0
S. Flatsedge plant response rating (smallflower flatsedge; [9]): 0
S. Flatsedge plant response rating (smallflower flatsedge; [10]): 0
B. signalgrass plant response rating (surinam grass; [1]): 0
B. signalgrass plant response rating (surinam grass; [4]): 3
Plant response rating, B. signalgrass (surinam grass; [1]): 0
Plant response rating, B. signalgrass (surinam grass; [6]): 0
Plant response rating, B. signalgrass (surinam grass; [5]): 0
B. signalgrass plant response rating (surinam grass; [2]): 0
B. signalgrass plant response rating (surinam grass; [3]): 0
Plant response rating, B. signalgrass (surinam grass; [4]): 0
Barnyardgrass plant response rating (bamyardgrass; [7]): 0
Barnyardgrass plant response rating (0 to 10 scale, 0 is no effect, 10 is complete control) (bamyardgrass; [8]): 0
Barnyardgrass plant response rating (bamyardgrass; [9]): 0
Barnyardgrass plant response rating (bamyardgrass; [10]): 0
Wild oats plant response rating (wild oat; [1]): 0
Plant response rating, Wild oats (wild oat; [1]): 0
Plant response rating, Wild oats (wild oat; [5]): 0
Wild oats plant response rating (wild oat; [2]): 0
Wild oats plant response rating (wild oat; [3]): 0
Plant response rating, Wild oats (wild oat; [4]): 2
Crabgrass plant response rating (crabgrass; [1]): 0
Crabgrass plant response rating (crabgrass; [4]): 9
Plant response rating, Crabgrass (crabgrass; [1]): 0
Plant response rating, Crabgrass (crabgrass; [6]): 3
Plant response rating, Crabgrass (crabgrass; [5]): 3
Crabgrass plant response rating (crabgrass; [2]): 1
Crabgrass plant response rating (crabgrass; [3]): 3
Plant response rating, Crabgrass (crabgrass; [4]): 3
Velvetleaf plant response rating (velvetleaf; [1]): 0
Plant response rating, Velvetleaf (velvetleaf; [1]): 0
Plant response rating, Velvetleaf (velvetleaf; [5]): 0
Velvetleaf plant response rating (velvetleaf; [2]): 0
Velvetleaf plant response rating (velvetleaf; [3]): 0
Plant response rating, Velvetleaf (velvetleaf; [4]): 4
Rape plant response rating (rape; [1]): 0
Rape plant response rating (rape; [4]): 0
Plant response rating, Rape (rape; [1]): 0
Plant response rating, Rape (rape; [5]): 0
Rape plant response rating (rape; [2]): 0
Rape plant response rating (rape; [3]): 0
Plant response rating, Rape (rape; [4]): 0
Corn plant response rating (corn; [1]): 0
Corn plant response rating (corn; [4]): 1
Plant response rating, Corn (corn; [1]): 0
Plant response rating, Corn (corn; [6]): 0
Plant response rating, Corn (corn; [5]): 0
Corn plant response rating (corn; [2]): 0
Corn plant response rating (corn; [3]): 0
Plant response rating, Corn (corn; [4]): 0
Blackgrass plant response rating (blackgrass; [1]): 0
Blackgrass plant response rating (blackgrass; [4]): 3
Plant response rating, Blackgrass (blackgrass; [1]): 0
Plant response rating, Blackgrass (blackgrass; [6]): 0
Plant response rating, Blackgrass (blackgrass; [5]): 4
Blackgrass plant response rating (blackgrass; [2]): 0
Blackgrass plant response rating (blackgrass; [3]): 1
Plant response rating, Blackgrass (blackgrass; [4]): 4
Redroot pigweed plant response rating (pigweed; [1]): 0
Redroot pigweed plant response rating (pigweed; [4]): 5
Plant response rating, Redroot pigweed (pigweed; [1]): 0
Plant response rating, Redroot pigweed (pigweed; [5]): 3
Redroot pigweed plant response rating (pigweed; [2]): 0
Redroot pigweed plant response rating (pigweed; [3]): 0
Plant response rating, Redroot pigweed (pigweed; [4]): 7

— patent publication US6737383B1, “Herbicidal oxadiazolidines” (priority 1999, dated 2004)
